Each structure is given as a SMILES string.

The assay deals with T1, human renin (Homo sapiens, UniProt P00797).
T1 sequence (P00797 67-406): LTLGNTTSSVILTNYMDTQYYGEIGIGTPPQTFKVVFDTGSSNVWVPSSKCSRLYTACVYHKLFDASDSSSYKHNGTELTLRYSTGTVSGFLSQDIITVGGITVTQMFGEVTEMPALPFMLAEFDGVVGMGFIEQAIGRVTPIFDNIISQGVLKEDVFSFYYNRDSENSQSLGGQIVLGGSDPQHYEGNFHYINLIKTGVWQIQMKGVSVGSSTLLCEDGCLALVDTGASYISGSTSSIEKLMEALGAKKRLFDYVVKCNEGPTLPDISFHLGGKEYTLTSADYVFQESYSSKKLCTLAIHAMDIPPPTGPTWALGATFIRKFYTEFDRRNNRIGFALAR
Briefly: Human renin-sheep renin substrate reaction system in vitro. The class given is biochemical. As to conditions: purified human renin, semipurified sheep renin substrate, pH 7.4, 37° C., 15 minutes; angiotensin I by radioimmunoassay; read-out: IC50 (molar concentration). Here is the method: The mixture was incubated for 15 minutes on a water bath at 37° C., and the reaction mixture was allowed to stand for 5 minutes on a water bath at 100° C. to stop the reaction. After cooling, 200 μl of the solution was taken up and the amount of angiotensin I produced by the addition of renin was determined by radioimmunoassay. The inhibitory effect was calculated by the following equation. [formula]
As a control, the same procedure as above was carried out by using 50 μl of dimethyl sulfoxide alone in place of the 50 μl of dimethyl sulfoxide solution containing a dipeptide of the present invention.
Consider `CC(C)C[C@@H](CO)NC(=O)[C@H](Cc1c[nH]cn1)NC(=O)C(CC(=O)NCc1ccccc1)Cc1cccc2ccccc12` (single isomer, unassigned) [N-[3-(Benzylcarbamoyl)-2-(1-naphthylmethyl)propionyl]-L-histidyl-L-leucinol(isomer A)], for which the IC50 stood at 19 µM. Under `CC(C)C[C@@H](CO)NC(=O)[C@H](Cc1c[nH]cn1)NC(=O)C(CC(=O)NCc1ccccc1)Cc1cccc2ccccc12` (single isomer, unassigned) [N-[3-(Benzylcarbamoyl)-2-(1-naphthylmethyl)propionyl]-L-histidyl-L-leucinol(isomer B)] stands 27 µM. Turning to `CC(C)C[C@@H](CO)NC(=O)[C@H](Cc1c[nH]cn1)NC(=O)C(CC(=O)NCCc1c[nH]c2ccccc12)Cc1cccc2ccccc12` (single isomer, unassigned) [N-{3-[2-(3-Indolyl)ethylcarbamoyl]-2-(1-naphthylmethyl)propionyl}-L-histidyl-L-leucinol (isomer A)], the IC50 was 28 µM. In the case of `CC(C)C[C@@H](CO)NC(=O)[C@H](Cc1c[nH]cn1)NC(=O)C(CC(=O)NCCc1c[nH]c2ccccc12)Cc1cccc2ccccc12` (single isomer, unassigned) [N-{3-[2-(3-Indolyl)ethylcarbamoyl]-2-(1-naphthylmethyl)propionyl}-L-histidyl-L-leucinol (isomer B)], the IC50 was 6.6 µM. As to `CC(C)C[C@@H](C=O)NC(=O)[C@H](Cc1c[nH]cn1)NC(=O)C(Cc1ccccc1)Cc1ccccc1` [N-(2-Benzyl-3-phenylpropionyl)-L-histidyl-L-leucinal], the IC50 is 1.1 µM.

As to `CC(C)C[C@@H](C=O)NC(=O)[C@H](Cc1c[nH]cn1)NC(=O)C(CCCCc1ccccc1)Cc1cccc2ccccc12` (stereo partly drawn) [N-[2-(1-Naphthylmethyl)-6-phenylhexanoyl]-L-histidyl-L-leucinal], the IC50 came to 0.14 µM.

`CC(C)C[C@@H](CO)NC(=O)[C@H](Cc1c[nH]cn1)NC(=O)C(=Cc1cccc2ccccc12)CC(=O)NCCc1ccccc1` [N-[2-(1-Naphthylmethylene)-3-(phenethylcarbamoyl)propionyl]-L-histidyl-L-leucinol]: the IC50 was found to be 69 µM. Under `CC(C)C[C@@H](C=O)NC(=O)[C@H](Cc1c[nH]cn1)NC(=O)C(CCCCc1ccc2ccccc2c1)Cc1ccccc1` (stereo partly drawn) [N-[2-Benzyl-6-(2-naphthyl)hexanoyl]-L-histidyl-L-leucinal] stands 3.4 µM; under `CC(C)C[C@@H](C=O)NC(=O)[C@H](Cc1c[nH]cn1)NC(=O)C(CCCCCc1ccccc1)Cc1ccccc1` (stereo partly drawn) [N-[2-Benzyl-7-phenylheptanoyl)-L-histidyl-L-leucinal], 2 µM; under `CC(C)C[C@@H](C=O)NC(=O)[C@H](Cc1c[nH]cn1)NC(=O)C(=Cc1ccccc1)CC(=O)NCc1cccc2ccccc12` [N-[2-Benzylidene-3-(1-naphthylmethylcarbamoyl)propionyl]-L-histidyl-L-leucinal], 3.8 µM.

Turning to `CC(C)C[C@@H](C=O)NC(=O)[C@H](Cc1c[nH]cn1)NC(=O)C(CCc1ccccc1)CCc1ccccc1` [N-[4-Phenyl-2-(2-phenylethyl)butanoyl]-L-histidyl-L-leucinal], the IC50 is 3.5 µM. Under `CC(C)C[C@@H](C=O)NC(=O)[C@H](Cc1c[nH]cn1)NC(=O)C(CCCCc1ccccc1)Cc1cccc2ccccc12` (stereo partly drawn) [N-[(+)-2-(1-Naphthylmethyl)-6-phenylhexanoyl]-L-histidyl-L-leucinal] stands 0.088 µM; under `CC(C)C[C@@H](C=O)NC(=O)[C@H](Cc1c[nH]cn1)NC(=O)C(CCCCc1ccccc1)Cc1cccc2ccccc12` (stereo partly drawn) [N-[(-)-2-(1-Naphthylmethyl)-6-phenylhexanoyl]-L-histidyl-L-leucinal], 0.46 µM.

These data come from patent publication US4863904A, “Dipeptides as renin inhibitors” (priority 1984, dated 1989).
